In US6255347A (priority 1997, dated 2001):
Values joined by “and” are separate entries in the source; they are usually repeats but may differ in a detail not shown here. Equal values may be shown once. “Also recorded” adds a separate entry of the source. Where a name gives a salt, the structure may show the parent alone. Read-outs that look alike come from different tables or passages of the source. Blank lines part the entries; values can stand above or below the compound they belong to. *1 amine or outer side, *2 acyl side, *3 side chain or, on linkers, in order; H or OH if unused. Where a SMILES comes first, the peptide text is derived from it. Bridges are numbered along the chain shown (N, C = ends). Roman numbers before positions name the chains, in order. [ ]: non-standard residue; d: D form. Actinocin(9to1) = Cc1c2oc3c(C)ccc(C(=O)[*:1])c3nc-2c(C(=O)[*:2])c(N)c1=O; NMeV = CN[C@H](C(=O)O)C(C)C; Sar = CNCC(=O)O

Assays:
[1] = tested on: APPs secretion by NIH 3T3 cell lines; settings: 50 μM; for Density of APPs band: 20 h culture, n = 2, mean ± S.D.
[2] = tested on: APPs secretion by NIH 3T3 cell lines; test: cells; settings: Mus musculus, NIH3T3, 20 h, read-out: fold increase of APPs secretion
[3] = cited from earlier work
[4] = cited from earlier work; remark: listed apart in the source
PKC = molecular target: T1, PKC (Rattus norvegicus, UniProt P05696); test: Protein kinase C activity assay (histone phosphorylation, partially purified rat brain PKC); assay type: biochemical; settings: PMA stimulated, 2 min, 30° C.
T1 construct: Partially purified PKCα from rat brain; purchased Promega (Madison, Wis.); host or cells: rat brain (tissue enzyme, partially purified)
Method: The following were obtained from the Sigma Chemical Co. (St. […] Anti-PKCα antibody (affinity purified) and its C-terminal region peptide was obtained from Life Technologies (Gaithersburg, Md.). […] All other chemicals were of the highest available purity and were obtained from standard commercial sources. […] Following 2 min initial incubation at 30° C., kinase reactions were initiated by the addition of ^32 P-γ-ATP and enzyme and continued at 30° C. for 2 min. Control incubations contained all assay components except enzyme and ibuprofen. […] All samples were carried out in duplicate.

NIH 3T3 cells = test: Foci formation assay, inhibition of PMA induced neoplastic transformation of NIH 3T3 cells; assay type: cell-based; settings: PMA 0.02 μg/ml, 2% FBS
Method: (§1) NIH 3T3 cells (American Type Culture Collection, Rockville, Md.) were cultured in DMEM supplemented with 10% FBS inoculated at 10^4 cells/35 […] dish. […] PMA and ibuprofen were dissolved in DMSO and stored in 5% DMSO stock solutions that were diluted a 1000-fold with culture media prior to use. […] The media containing freshly added PMA and ibuprofen were changed every 60 hours for both the foci formation assay and PKCα analysis by Western blot.
Subsequent to washing with a tris/ saline buffer, the cells were stained with a solution of 4% aqueous Giemsa stain in phosphate buffer (pH 7.0). Foci of transformed cells were then visible by eye due to their high local density and verified by under light microscopy.

cyclooxygenase = settings: cited from earlier work
rat stomach and duodenum = test: Gastric ulcer index / gastroduodenal lesions in rat; assay type: in vivo
Method: Male Sprague-Dawley rats (12 month) were obtained from Harlan-Sprague-Dawley, Inc. (Indianapolis, Ind.) and housed under controlled conditions of temperature humidity and light/dark cycle. […] Rat blood, brain and 50 μl of cerebrospinal fluid were collected and stored at -70° C. for APPs and PKC analysis by Western blotting. Rat stomach and duodenum were collected for the quantitation of gastroduodenal lesions.
The rat stomach and first 12 cm of the duodenum were opened and carefully shed with saline to remove any residual debris and fixed in 10% buffered formaldehyde. Tissues were examined macroscopically (×10) for lesions and hemorrhages. The evaluation of lesions or hemorrhages was based on the ulcer index (UI) reported by Leyck et al. (1985) and expressed as the sum total of lesions per treatment. The scoring units used ranged from 0 to 5, where zero represents no macroscopically visible lesions; 1 represents one to three small ulcers less than 4 mm; 2 represents more than three small ulcers; 3 represents ulcer hemorrhages with several small ulcers; 4 represents large (>4 mm) ulcers; 5 indicates tissue perforation.

PKCα = PKCα translocation in NIH 3T3 cells (subcellular fractionation, Western blot); assay type: cell-based; settings: 10 μg/ml
Method: as §1
The cells were washed twice with phosphate-buffered saline (PBS) at 37° C. and subsequently lysed and scraped in 1 ml ice-cold protein lysis buffer (20 mM Tris-HCl, pH7.4, 2 mM EGTA, 2 mM EDTA, […] leupeptin and […] aprotinin) at 4° C. […] Briefly, cells were homogenized 10× in 15 ml glass homogenizer with a tight-fitting pestle and centrifuged at 900×g for 10 min. The resulting supernatant was then centrifuged at 100,000×g for 60 min to produce a nucleus-free membrane fraction (pellet) and a cytosol fraction (supernatant) for Western blots. The 900×g nuclear pellet was suspended in the 2 ml lysis buffer containing 10% sucrose and 0.1% Triton X-100 and washed twice by centrifuging at 1000×g for 10 min, then resuspended in 1 ml of the same buffer without Triton X-100 for Western blots. The purity of the fractions was monitored by light microscopy. […] The samples were stored at -70° C. until analysis.
15 μl of human plasma, 15 μl of rat plasma, CSF or 50 μg of rat brain protein were denatured with 35 μl of sample buffer at 95° C. for 4 min. Denatured proteins were separated by 10% SDS-polyacrylamide gel electrophoresis with a 50 μg or 20 μg protein load for each sample for APPs or PKC, respectively, and electrophoretically transferred from gel to nitrocellulose membrane. […] The immunoreactive bands were developed using enhanced chemilumenescence (ECL. Amersham Life Sci., Little Chalfont, UK), following extensive washing with the blocking buffer. The PKC bands were verified in each case by competitively blocking the signal with the peptide corresponding to each of PKCs. The bands were quantitated by scanning densitometry. Quantitative comparisons were made between samples processed simultaneously on one blot.

[5] = tested on: human neoplastic diseases; settings: cited from earlier work

SMILES: CC(C(=O)O)c1cccc(Oc2ccccc2)c1 (racemic) [RS-Fenoprofen]
Density of APPs band [1]: 6.36 ± 0.77
fold induction at 50 µM [2]: 1.6

SMILES: CC(C(=O)O)c1ccc(-c2ccccc2)c(F)c1 (racemic) [RS-Flubiprofen]
Density of APPs band [1]: 3.07 ± 0.34

SMILES: Cc1c2oc3c(C)ccc(C(=O)N[C@@H]4C(=O)N[C@H](C(C)C)C(=O)N5CCC[C@H]5C(=O)N(C)CC(=O)N(C)[C@@H](C(C)C)C(=O)O[C@@H]4C)c3nc-2c(C(=O)N[C@@H]2C(=O)N[C@H](C(C)C)C(=O)N3CCC[C@H]3C(=O)N(C)CC(=O)N(C)[C@@H](C(C)C)C(=O)O[C@@H]2C)c(N)c1=O [Actinomycin D] (I: T[dV]P[Sar][NMeV] / II: T[dV]P[Sar][NMeV]; ester I:1-I:C, II:1-II:C; linker I:N-II:N via Actinocin(9to1))
elimination half-life ([3]; in vivo): about 36 hr
excreted in urine ([3]; in vivo): 10%
excreted intact into the bile (in words) ([3]; in vivo): Half of the dose
passage of blood-brain barrier ([3]; in vivo): does not pass the blood-brain barrier

SMILES: O=NN(CCCl)C(=O)NCCCl [Carmustine, 1,3-bis (2-chloroethyl)-1-nitrosourea]
solubility (in words) ([4]; solvent): highly soluble in alcohol and lipids, and poorly soluble in water

SMILES: O=C(O)CCCc1ccc(N(CCCl)CCCl)cc1 [Chlorambucil, 4-[bis(2-chlorethyl)amino]benzenebutanoic acid]
terminal half-life ([3]; in vivo): 1.5 h

SMILES: N.N.[Cl][Pt][Cl] [Cisplatin]
absorption (in words) ([3]; oral): not absorbed orally

SMILES: COc1cccc2c1C(=O)c1c(O)c3c(c(O)c1C2=O)C[C@@](O)(C(C)=O)C[C@@H]3O[C@H]1C[C@H](N)[C@H](O)[C@H](C)O1 [Daunorubicin, 5,12-Naphthacenedione, (8S-cis)-8-acetyl-10-[(3-amino-2,3,6-trideoxy-α-L-lyxo-hexanopyranosyl)oxy]-7,8,9,10-tetrahydro-6,8, 11-trihydroxy-10-methoxy-, hydrochloride]
absorption (in words) ([3]; in vivo, po): Oral absorption is poor
secreted into the bile ([3]; in vivo): ~40%

SMILES: COc1cccc2c1C(=O)c1c(O)c3c(c(O)c1C2=O)C[C@@](O)(C(=O)CO)C[C@@H]3O[C@H]1C[C@H](N)[C@H](O)[C@H](C)O1 [Doxorubicin, 5,12-Naphthacenedione, (8s-cis)-10-[(3-amino-2,3,6-trideoxy-a-L-lyxo-hexopyranosyl)oxy]-7,8,9,10-tetrahydro-6,8,11 trihydroxy-8-(hydroxyacetyl)-1-methoxy-hydrochloride]
absorption (in words) ([3]; in vivo, po): absorbed poorly
elimination half-life ([3]; in vivo): about 30 hr
excreted in urine ([3]; in vivo): a few percent

SMILES: O=NN(CCCl)C(=O)NC1CCCCC1 [Lomustine, 1-(2-chloro-ethyl)-3-cyclohexyl-1 nitrosourea]
tissue levels compared to plasma levels ([3]; 15 minutes after intravenous administration): comparable to plasma levels
radioactivity excreted as degradation products ([3]; oral 30 mg/m^2 to 100 mg/m^2, within 24 hours): about half
ionization ([4]; physiological pH): relatively unionized at a physiological pH

SMILES: CO[C@@]12[C@H](COC(N)=O)C3=C(C(=O)C(C)=C(N)C3=O)N1C[C@@H]1N[C@@H]12 [Mitomycin]
time required to reduce the serum concentration by 50% ([3]; human, in vivo, iv): 17 min
clearance from serum (in words) ([3]; in vivo, iv): rapidly cleared from the serum
excreted in urine ([3]; in vivo): Approximately 10%

SMILES: CN1C(C(=O)Nc2ccccn2)=C(O)c2ccccc2S1(=O)=O [Proxicam]
Density of APPs band [1]: 3.29 ± 0.77

SMILES: C[C@@H](C(=O)O)c1cccc(Oc2ccccc2)c1 [R-Fenoprofen]
Density of APPs band [1]: 5.32 ± 1.29
fold induction at 50 µM [2]: 1.3

SMILES: C[C@@H](C(=O)O)c1ccc(-c2ccccc2)c(F)c1 [R-Flubiprofen]
Density of APPs band [1]: 3.30 ± 0.81

SMILES: C[C@@H](C(=O)O)c1cccc(C(=O)c2ccccc2)c1 [R-Ketoprofen]
Density of APPs band [1]: 3.41 ± 0.39 and 2.74 ± 0.34

SMILES: CC(C(=O)O)c1cccc(C(=O)c2ccccc2)c1 (stereo not drawn) [RS-Ketoprofen]
Density of APPs band [1]: 3.67 ± 0.27 and 2.94 ± 0.98

SMILES: C[C@H](C(=O)O)c1cccc(Oc2ccccc2)c1 [S-Fenoprofen]
Density of APPs band [1]: 5.32 ± 1.53
fold induction at 50 µM [2]: 1.3

SMILES: C[C@H](C(=O)O)c1ccc(-c2ccccc2)c(F)c1 [S-Flubiprofen]
Density of APPs band [1]: 2.37 ± 0.66

SMILES: C[C@H](C(=O)O)c1cccc(C(=O)c2ccccc2)c1 [S-Ketoprofen]
Density of APPs band [1]: 2.99 ± 0.57 and 3.76 ± 1.26

concentration inhibiting PKC mediated histone phosphorylation (PKC): 1 µM
SMILES: CC(C)Cc1ccc([C@H](C)C(=O)O)cc1 [S-ibuprofen]
inhibition of foci formation, enantiomers compared to racemate (NIH 3T3 cells): more pronounced than that of the racemate; also recorded: more effective than the racemic mixture
inhibition of PMA induced foci formation / neoplastic transformation (NIH 3T3 cells; 6 weeks, ibuprofen 10 or 100 μg/ml): dramatically decreased; also recorded: inhibit the neoplastic transformation; also recorded: substantially inhibited
capability to inhibit cyclooxygenase (in words) (cyclooxygenase): inhibition of cyclooxygenase activity by ibuprofen resides almost exclusively in the S-enantiomer
potency in suppressing prostaglandin formation, S- versus R-ibuprofen (cyclooxygenase; from arachidonic acid): approximately 100 times
Bleeding site (B), column 1 (rat stomach and duodenum; 10 mg/kg bid, 7 days, column 1): 4
gastropathy (in words) (rat stomach and duodenum; rat, in vivo): induced serious gastric ulcers and hemorrhage
inhibition of PKCα translocation from cytosol to nuclear compartments (PKCα; PMA 4 hours): clearly modulated the time dependent intracellular redistribution of PKCα
inhibition of PKCα translocation, racemate versus enantiomers (PKCα; particularly 2 weeks of PMA): more effective than the racemic mixture

SMILES: CC[C@]1(O)C[C@@H]2CN(CCc3c([nH]c4ccccc34)[C@@](C(=O)OC)(c3cc4c(cc3OC)N(C)[C@H]3[C@@](O)(C(=O)OC)[C@H](OC(C)=O)[C@]5(CC)C=CCN6CC[C@]43[C@@H]65)C2)C1 [Vinblastine]
excreted in urine ([3]; in vivo): Approximately 15%
recovered in the feces ([3]; in vivo): about 10%
cases with significant improvement ([5]; lymphomas, particularly Hodgkin's disease): 50 to 90%

SMILES: CC[C@]1(O)C[C@H]2CN(CCc3c([nH]c4ccccc34)[C@@](C(=O)OC)(c3cc4c(cc3OC)N(C=O)[C@H]3[C@@](O)(C(=O)OC)[C@H](OC(C)=O)[C@]5(CC)C=CCN6CC[C@]43[C@@H]65)C2)C1 [Vincristine]
concentration in blood cells (in words) ([3]; in vivo): extensively concentrated in platelets and to a lesser extent in leukocytes and erythrocytes
absorption (in words) ([3]; oral): Unpredictable absorption

SMILES: CS(=O)(=O)OCCCCOS(C)(=O)=O [busulfan, 1,4-butanediol dimethanesulfonate]
patients obtaining hematologic remission ([5]; previously untreated chronic myelogenous leukemia, adults): Approximately 90%

SMILES: COc1cccc2c1C(=O)c1c(O)c3c(c(O)c1C2=O)C[C@@](O)(C(C)O)C[C@@H]3O[C@H]1C[C@H](N)[C@H](O)[C@H](C)O1 (stereo partly drawn) [daunorubicinol]
elimination half-life ([3]; in vivo): about 27 hr

SMILES: CC(C(=O)O)c1cccc(Oc2ccccc2)c1 (stereo not drawn) [fenoprofen]
APPs secretion (in words) ([1]; 20 h): increased APPs secretion
